From PubChem BioAssay AID179 (DTP/NCI, 2004) come the findings set out here.

The test system of this test is CEM cells HIV-1 protection, formazan growth assay. The test is described as follows: NCI AIDS Antiviral Assay. The following applies: for IC50: measured here: growth of uninfected CEM cells. A digest of the protocol:
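CEM (human) cells, HIV-1 infected vs uninfected, 5-point dosing, formazan growth read-out. Retest threshold 50% protection.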

Molecules are shown by their SMILES. Activity calls are given as the source filed them.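 The calls were made as follows: active = compounds giving half or more protection of infected cells from virus-caused growth loss, again on retest; inactive = the rest.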 Where a SMILES comes first, the peptide text is derived from it. The star is where a group is joined. Boc = CC(C)(C)OC(=O)*; OBn = c1ccc(CO*)cc1

As a reminder, the EC50 is the midpoint of the concentration-response curve. A word on the IC50: it is the concentration needed to halve the response being measured. Read a high IC50 as weaker potency. `COc1ccc(/C(C)=N\N)cc1`: the EC50 is over 200 µM and the IC50 was over 200 µM.
Consider `CCCCCCCCCCNCCSSCc1ccc(Cl)cc1`, for which the result was inactive.
For `Cn1c(=O)c(=O)n(C)c2cc(Cl)c(Cl)cc21`, the EC50 was over 200 µM and the IC50 was over 200 µM.
In the case of `OCCN(CCO)c1nc(N(CCO)CCO)nc(N(CCO)CCO)n1`, the EC50 was over 200 µM and the IC50 is over 200 µM.
For `Cc1ccc(NC(=O)CCC/C(CC(=O)c2ccc(Br)cc2)=N/NC(=O)CC#N)cc1`, the EC50 was over 102 µM and the IC50 was over 102 µM.
On to `O=c1[nH]c(=O)n(C2CC(O)C(CO)O2)cc1NN=NCCCc1ccccc1` (stereo not given), for which the EC50 was over 200 µM and the IC50 is over 200 µM.
Turning to `COc1cc(C2SC(N)=Nc3c2c(C)nn3C(=O)Cc2ccccc2)ccc1O` (stereo not given), the concentration giving a half-maximal response (EC50) is 70.8 µM and the concentration for half-maximal inhibition (IC50) was over 200 µM.
In the same order, the values of `CN(C(=O)C12C3C4C1C1C2C3C41I)C(C)(C)C` (stereo not given) are over 251 µM and over 251 µM.
Regarding `CN(CCC#N)c1ccc(/C=C(\C#N)c2cccc(C(F)(F)F)c2)cc1`, the EC50 was over 200 µM and the concentration for half-maximal inhibition (IC50) was found to be 3.63 µM.
As for `C/C(=N\NC(=O)c1ccncc1)c1sc(-n2nc(-c3ccccc3)cc2-c2ccccc2)nc1C`, the EC50 was over 11 µM and the 50% inhibitory concentration (IC50) was over 11 µM.
With `COC(=O)C1=C(C(=O)NNc2ccccc2)N(c2cccnc2Cl)C(c2ccccc2)=CC1c1ccccc1` (stereo not given), the EC50 is over 200 µM and the 50% inhibitory concentration (IC50) came out at 22.9 µM.
Take `C/C(=C\c1csc(C)n1)[C@@H]1C[C@@H]2O[C@]2(C)CCC[C@H](C)[C@H](O)[C@@H](C)C(=O)C(C)(C)[C@@H](O)CC(=O)O1` (tested in a mixture with another compound): the EC50 was over 0.02 µM and the IC50 is 0.001 µM.
Turning to `O=C(N/N=C/c1ccccc1)c1c(F)c(F)c(F)c(F)c1F`, the EC50 is over 200 µM and the 50% inhibitory concentration (IC50) turned out to be 112 µM.
For the compound `NC(=O)c1ncn2c1CNC(=O)C2`, the EC50 was over 200 µM and the IC50 was over 200 µM.
With `S=C1CCCCCN1`, the EC50 is over 1950 µM and the IC50 was 1020 µM.
Consider `O=C(O)/C(=C(/c1ccccc1)c1ccc(Cl)cc1)c1ccccc1`, for which the EC50 is over 107 µM and the IC50 stood at 89.1 µM.
With `COc1ccc(C(O)C2c3c(cc4c(c3OC)OCO4)CCN2C)c(CO)c1OC` (stereo not given), the result was inactive.
In the case of `c1cc(C[N+]23CN4CN(CN(C4)C2)C3)cs1`, the result was inactive.
Take `NNC(=O)CC(=O)N(C(=O)c1ccccc1)c1ccc(Cl)cc1`: the EC50 was over 200 µM and the IC50 is over 200 µM.
As for `COC(=O)/C(=N/Nc1cccc(Cl)c1)C(C(=O)C(=O)Nc1cccc(Cl)c1C)c1nc2ccccc2nc1C` (stereo not given), the EC50 was over 12.9 µM and the half-inhibitory concentration (IC50) is over 12.9 µM.
Take `C#CC(C)(C)Oc1cc(O)c2c(=O)c3ccccc3n(C)c2c1`: the EC50 was over 23.4 µM and the IC50 was over 23.4 µM.
With `C=C1CC2C(=O)N(c3ccccc3)C(=O)C2CC1n1[nH]c(=O)n(Cc2ccccc2)c1=O` (stereo not given), the EC50 was over 219 µM and the IC50 is over 219 µM.
For `CC(=O)C1=C(O)C2C3c4c[nH]c5cccc(c45)CC3C(C)(C)N2C1=O` (stereo not given), the result was inactive.
Regarding `Cn1c2ccccc2c2nnc(SCCN3CCOCC3)nc21`, the EC50 is over 200 µM and the 50% inhibitory concentration (IC50) was over 200 µM.
For `CCOC(=O)c1c(C)nc(C)c(C(=O)OCC)c1-c1ccc(N(C)C)cc1`, the EC50 is over 200 µM and the half-inhibitory concentration (IC50) is 53.7 µM.
Regarding `CCOC(=O)c1ccc2c(=O)n3c(C(=O)OCC)ccc3c(=O)n12`, the EC50 was 162 µM and the IC50 is over 200 µM.
Take `Cc1ccc(S(=O)(=O)OC2CSS(=O)CC2OS(=O)(=O)c2ccc(C)cc2)cc1` (stereo not given): the EC50 was over 200 µM and the half-inhibitory concentration (IC50) was found to be 9.33 µM.
In the case of `CC(/C=C/c1ccccc1)=Nc1ccccc1`, the EC50 is over 23.4 µM and the IC50 is over 23.4 µM.
Turning to `CCCSS[C@H]1NC(=O)[C@H]1NC(=O)COc1ccccc1`, the EC50 is over 21.9 µM and the IC50 was over 21.9 µM.
Regarding `Oc1ccc2c(c1)CCc1c-2n(CCN2CCOCC2)c2ccc(O)cc12`, the EC50 was over 200 µM and the concentration for half-maximal inhibition (IC50) was 14.8 µM.
Taken in the same sequence, the figures for `O=c1[nH]c(Nc2nc3ccccc3[nH]2)nc(O)c1Cc1ccccc1` were over 151 µM and over 151 µM.
Consider `O=[N+]([O-])c1cccc2nccc(NCCCO)c12`, for which the EC50 was over 200 µM and the IC50 was 6.92 µM.
Taken in the same sequence, the figures for `O=[N+]([O-])CC1CCCCC1O` (stereo not given) were over 200 µM and 115 µM.
Taken in the same sequence, the figures for `Cc1cc2c(C(C)C)c(O)c(O)c(C=Nc3ccc(-c4ccccc4)cc3)c2c(O)c1-c1c(C)cc2c(C(C)C)c(O)c(O)c(C=Nc3ccc(-c4ccccc4)cc3)c2c1O` were 1.62 µM and over 200 µM.
Regarding `CCCCCCCCCCCCCCCC(=O)OCCOCCOCCOCc1ccccc1`, the result was inactive.
The same measure, in the same setting: the value for `CN(C)c1cccc2c(S(=O)(=O)NCC(=O)O)cccc12` was “inactive”.
Regarding `COc1ccc(/C=C(/C(C)=O)c2ccccc2)cc1`, the EC50 is over 74.1 µM and the IC50 was over 74.1 µM.
`CCc1cccc(C)c1N1C(=O)C(=O)C(c2nc3ccccc3o2)/C(=N/NC(=S)NN)C1=O` (stereo not given): the result was inactive.
For `CC(=O)CC1(OC(=O)C2C(C=C(C)C)C2(C)C)C(=O)Nc2ccccc21` (stereo not given), the EC50 was over 200 µM and the concentration for half-maximal inhibition (IC50) came to 105 µM.
Taken in the same sequence, the figures for `Cc1ccc(NC(=O)c2c(NC(=O)CN3CCOCC3)c(C#N)c3n2CCC3)cc1` were over 200 µM and over 200 µM.
For the compound `Cc1ccc2ccccc2c1NC1=NCCO1`, the EC50 is over 200 µM and the 50% inhibitory concentration (IC50) is 107 µM.
In the case of `CCN(CC)CCNCC(O)CN1CCN(C)CC1` (stereo not given), the EC50 was over 200 µM and the half-maximal inhibitory concentration (IC50) turned out to be 155 µM.
In the same order, the values of `CCN1C[C@]2(C)CC[C@H](OC)C34C5C[C@@H]6[C@@H](OC)C[C@@](OC)(C5[C@H]6OCc5ccccc5)C(C13)[C@H](OC(C)=O)[C@@H]42` (stereo not given in full) are over 200 µM and 105 µM.
Taken in the same sequence, the figures for `N#Cc1c(Cl)c2cccnc2n2c1nc1ccccc12` were over 200 µM and 0.339 µM.
Turning to `CC(C)C(NC(=O)C(Cc1ccccc1)NC(=O)OC(C)(C)C)C(=O)NCC(=O)OCc1ccccc1` (stereo not drawn) (Boc-Phe-Val-Gly-OBn; configuration not given here), the EC50 was over 200 µM and the half-inhibitory concentration (IC50) came out at 10.7 µM.
In the same order, the values of `CCCCCCCCCC=C(c1cc(Br)c(O)c(C(=O)O)c1)c1cc(Br)c(O)c(C(=O)O)c1` are 141 µM and 191 µM.
Taken in the same sequence, the figures for `O=C1CC2Sc3ccccc3N=C2N1c1ccc(Cl)cc1Cl` (stereo not given) were over 269 µM and 47.9 µM.
Consider `C[N+](C)(C)CC1CCCC(C[N+](C)(C)C)C1=NO` (stereo not given), for which the result was inactive.
Consider `COC(=O)c1cc2cccc(CS(=O)(=O)O)c2cc1O`, for which the EC50 was over 200 µM and the IC50 is 21.4 µM.
In the same order, the values of `COc1ccc(N2NC(c3ccccc3)(c3ccccc3)C(C)C2=O)cc1` (stereo not given) are over 200 µM and 11 µM.
In the same order, the values of `O=C(CP(=O)(O)O)NC(CC(=O)OCc1ccccc1)C(=O)OCc1ccccc1` (stereo not given) are over 100 µM and over 100 µM.
Consider `COc1ccc(C2SCc3nc4ccccc4n32)cc1` (stereo not given), for which the outcome was inactive.
Consider `COC(=O)Cc1cc(O)c(C/C=C(\C)CC/C=C(\C)C(O)C(=O)C=C(C)C)cc1O` (stereo not given), for which the EC50 was over 15.8 µM and the IC50 turned out to be 9.33 µM.
In the case of `CN1C(C)(C)CC(=O)C(Br)C1(C)C` (stereo not given), the EC50 is over 200 µM and the IC50 turned out to be 117 µM.
In the same order, the values of `Cc1[nH]c2ccccc2c1C1Cc2ccccc2N1C(=O)/C(Cl)=C/c1ccccc1` (stereo not given) are over 6.61 µM and over 6.61 µM.
Taken in the same sequence, the figures for `C/C(CN1C(=O)c2ccccc2C1=O)=N\NS(=O)(=O)c1ccc(C)cc1` were over 355 µM and over 355 µM.
Consider `Cn1cc(S(=O)(=O)NC(=O)Nc2ccc(Cl)cc2)c2ccccc21`, for which the EC50 is over 200 µM and the concentration for half-maximal inhibition (IC50) came to 27.5 µM.
Taken in the same sequence, the figures for `O=C1C=C[C@@]23CC1C(O)C[C@H]2C=Cc1ccccc13` (stereo not given in full) were over 102 µM and over 102 µM.
In the same order, the values of `c1cc(C[S+]2CCCC2)ccc1C[S+]1CCCC1` are over 100 µM and over 100 µM.
In the same order, the values of `COC(=O)c1cc(C(CCl)c2cc(C(=O)OC)c(O)cc2C)c(C)cc1O` are over 200 µM and 112 µM.
Consider `O=c1c2c(sc3ccccc13)NCN(CCc1ccccc1)C2`, for which the EC50 is 17.4 µM and the IC50 stood at 40.7 µM.
In the same order, the values of `CC1=C(C(=O)NNC(=O)C(N)=O)CC(C(=O)NNC(=O)C(N)=O)=C(C)N1` are over 200 µM and over 200 µM.
Taken in the same sequence, the figures for `CC(=O)O[C@H]1CC[C@@]2(C)C(=CC[C@@H]3C2CC[C@@]2(C)C3CC[C@@H]2c2nc(-c3ccccc3)cs2)C1` (stereo not given in full) were over 52.5 µM and over 52.5 µM.
Turning to `CCOC(=O)/C(Br)=C1\OC(=O)c2ccccc2-c2ccccc21`, the EC50 was over 19.5 µM and the IC50 is over 19.5 µM.
Take `Nc1ncc2ncn(C3CCC(CO)O3)c2n1` (stereo not given): the EC50 is over 200 µM and the IC50 was over 200 µM.
On to `Cn1cc(S(=O)(=O)NC(=O)Nc2ccc(Cl)cc2)c(=O)c2ccc(Cl)cc21`, for which the EC50 was over 200 µM and the concentration for half-maximal inhibition (IC50) was 36.3 µM.
In the same order, the values of `COc1cc(COC(=O)N[C@H](C(=O)O)C(C)(C)C)c([N+](=O)[O-])cc1OC` are over 676 µM and over 676 µM.
As for `CC/C(=N/O)c1ccc2[nH]c3c(C)cc([N+](=O)[O-])c(C)c3c2c1`, the EC50 is over 12 µM and the IC50 is 7.41 µM.
Take `COC1CCON1C(=O)c1ccccc1` (stereo not given): the EC50 was over 200 µM and the IC50 is over 200 µM.
Regarding `C[C@H]1c2c([nH]c(=O)[nH]c2=O)O[C@@H]1c1ccccc1`, the EC50 is over 200 µM and the half-inhibitory concentration (IC50) is over 200 µM.
Turning to `O=C(Oc1cccc2cccnc12)c1ccccc1`, the EC50 is over 200 µM and the 50% inhibitory concentration (IC50) is 33.9 µM.
In the case of `O=c1[nH]nc(-c2ccccc2)n1/N=C/c1cccnc1`, the EC50 is over 200 µM and the half-maximal inhibitory concentration (IC50) came out at 61.7 µM.
